Values joined by “and” are separate entries in the source; they are usually repeats but may differ in a detail not shown here. Equal values may be shown once.
Columns and labels:
water louse = conditions: naturalistic pond experiment; ref Lagesson et al. 2016; cited from earlier work
[1] = system: water louse (Asellus aquaticus); experiment: Study 2: uptake in whole-body tissue of water louse; conditions: for Start relative tissue concentration (Cb/Cw): 60 min after dosing; for End relative tissue concentration (Cb/Cw): final sampling day
Description: (§5) Nine-spine stickleback were collected using umbrella traps from ponds in Röbäck, Sweden, in July 2017. Fish were housed in a large, aerated, ground water flow-through tank (1500 L) until the start of the experiment. Fish were fed frozen chironomid larvae until satiation once daily. Water louse were collected using sweep nets from Djupsundsbäcken near Holmsund, Sweden, in January 2018. Water louse were kept in aerated containers with detritus (predominately alder leaf litter) until the start of the experiment.
(§6) Stickleback and water louse were exposed to 187 ng/L (nominal concentration) methylphenidate at two temperature treatments: 10 °C (in a climate chamber) and 20 °C (ambient room temperature). Both exposures were maintained at the same light cycle used in study 1. Organisms were exposed under static conditions using three replicate glass aquaria filled with 20 L water. The aquaria were equipped with an airstone and two ceramic clay pots for shelter in each temperature treatment. Fish were exposed in two tanks, while water louse were exposed separately in the remaining tank. Water from each tank was sampled at 0 min (immediately after dosing), 15 min, 30 min, 60 min, 4 h, 8 h, 24 h, 3 days, 5 days, 7 days, 9 days, 10 days, 11 days, 12 days, and 13 days. Three to six water louse and three to six fish were sampled at each of the following time points: 60 min, 4 h, 8 h, 24 h, 3 days, 5 days, 7 days, 9 days, 10 days, 11 days, 12 days, and 13 days. Fish were euthanized via cerebral concussion and spinal severance. Water quality measures of pH (Merck pH Universal Indicator Strips), dissolved oxygen, and temperature (YSI Pro DO Series) were verified in the exposure tanks on the final days of sampling. For the low (10 °C) and high (20 °C) temperature rooms, respectively, water temperature was (mean ± s.d.) 10.03 ± 0.32 °C and 17.07 ± 0.21 °C; dissolved oxygen was 14.40 ± 0.27 mg/L and 12.30 ± 0.30 mg/L; and there were no changes in pH (7 ± 0, for both temperatures).
(§7) Immediately after sampling, all water and organisms sampled were frozen at − 20 °C until further processing. Muscle tissue (mean ± s.d. 0.09 ± 0.02 g; range 0.02–0.13 g) was dissected from each stickleback by taking a section of the dorsal axial muscle. Water louse collected from each temperature treatment (10 °C and 20 °C) on each sampling day were pooled due to low sample weight before extracting whole-body tissue (0.05 ± 0.01 g; range 0.03–0.07 g). However, when enough tissue was available, multiple water louse samples were analysed. To each sample, 5 ng (50 μL) of the internal standard methylphenidate-D9 (Cerilliant, USA; in methanol, HPLC-grade, Fisher Chemical, Loughborough, UK) was added. For both stickleback and water louse, tissues were extracted using 1.5 ml acetonitrile (HPLC-grade, Fisher Chemical, Loughborough, UK) repeated twice (based on the method used by Brodin et al. [2013]; McCallum et al. [2017], [2018]). The samples were homogenized and extracted for 4 min at 42,000 oscillations per minute (Mini Beadbeater, Biospec. Bartlesville, USA) with zirconium beads and then centrifuged the samples at 17,500 g for 10 min (Beckman Coulter Microfuge 22R Centrifuge). This protocol was used for both eluent mixtures, and the supernatants were combined. The combined supernatants were evaporated to 20 μl and the sample was reconstituted in 100 μl methanol (HPLC-grade, Fisher Chemical, Loughborough, UK).

in vivo [2] = conditions: nine-spine stickleback (Pungitius pungitius), 187 ng/L
Description: as §5, §6
(§8) Immediately after sampling, all water and organisms sampled were frozen at − 20 °C until further processing. Muscle tissue (mean ± s.d. 0.09 ± 0.02 g; range 0.02–0.13 g) was dissected from each stickleback by taking a section of the dorsal axial muscle. Water louse collected from each temperature treatment (10 °C and 20 °C) on each sampling day were pooled due to low sample weight before extracting whole-body tissue (0.05 ± 0.01 g; range 0.03–0.07 g). However, when enough tissue was available, multiple water louse samples were analysed. To each sample, 5 ng (50 μL) of the internal standard methylphenidate-D9 (Cerilliant, USA; in methanol, HPLC-grade, Fisher Chemical, Loughborough, UK) was added. For both stickleback and water louse, tissues were extracted using 1.5 ml acetonitrile (HPLC-grade, Fisher Chemical, Loughborough, UK) repeated twice (based on the method used by Brodin et al. [2013]; McCallum et al. [2017], [2018]). The samples were homogenized and extracted for 4 min at 42,000 oscillations per minute (Mini Beadbeater, Biospec. Bartlesville, USA) with zirconium beads and then centrifuged the samples at 17,500 g for 10 min (Beckman Coulter Microfuge 22R Centrifuge). This protocol was used for both eluent mixtures, and the supernatants were combined. The combined supernatants were evaporated to 20 μl and the sample was reconstituted in 100 μl methanol (HPLC-grade, Fisher Chemical, Loughborough, UK). […]

human = conditions: oral administration, ref Gualtieri et al. 1982, Doerge et al. 2000; cited from earlier work
[3] = Study 1: static water only, stability of methylphenidate and breakdown to ritalinic acid; conditions: for Water concentration, measured end: final sampling day; for Water concentration, measured end / Water concentration, measured start: nominal 1870 ng/L methylphenidate, Ntanks = 1; for Water concentration, measured start: immediately after dosing
Description: A total of 1870 ng/L (nominal concentration) of methylphenidate (1 mL of the stock solution) was added to a glass aquarium filled with 20 L of ground water. The tank was aerated and kept at 20 °C (ambient room temperature). Water was sampled at 0 min (immediately after dosing), 5 min, 15 min, 45 min, 90 min, 4 h, 10 h, 24 h, 2 days, 3 days, 4 days, 5 days, 7 days, and 12 days. This exposure was conducted in a windowless room with a light-dark cycle of 13L:11D.
(§1) Fifty microlitres of methylphenidate-D9 (500 ng/L) was added to 10-ml aliquots of the aqueous samples, filtered (0.45 μm, Filtropur S, Sarstedt, N~umbrecht, Germany), and acidified with 10 μL formic acid (0.1% v/v, Merck KGaA, Darmstadt, Germany) to a pH of 2.7.
(§2) All of the samples were injected to an EQuan MAX Plus LC-Quantiva triple quadrupole MS/MS (Thermo Scientific, San Jose, USA). A 10-μL injection volume was used for stickleback/louse extracts and the calibration curve. For the aqueous samples, and the corresponding calibration curve, a 1-mL injection volume was used and preconcentrated the analytes on an online-connected Oasis HLB column (2.1 × 20 mm, 15 μm Waters, Milford, USA) using column switching (70 s transfer time and 180 s elution time). Milli-Q ultra-pure water (Millipore) and methanol (Lichrosolv, Hypergrade, Merck) were used as mobile phases (both containing 0.1% formic acid (Suprapur, Merck KGaA), v/v) together with Hypersil GOLD columns (Thermo Scientific) as stationary phases: guard (20 × 2.1 mm, 3 μm) and analytical (50 × 2.1 mm, 3 μm). The flow rate was kept at 350 μL/min, and we used two linear gradients. The gradient for the stickleback/louse extracts were as follows: 0–2 min, methanol 2%; 2–4 min, methanol 2–100%; 4–6 min, methanol 100%; and 6.01–7.5 min, methanol 2%. For the aqueous samples, the gradient was 0–2 min, methanol 2%; 2–4.75 min, methanol 2–100%; 4.75–7 min, methanol 100%; and 7.01–9 min, methanol 2%.
(§3) Positive polarity and a heated electrospray at 338 °C, an ion transfer tube temperature at 350 °C, and a spray voltage at 3.5 kV were used. […] See supplementary materials for QA/QC data.
(§4) All analyses were conducted in R (version: 3.5.0; R Core Team [2018]). […] Welch’s two-sample t tests were used to analyse whether methylphenidate degradation in the water column was impacted by temperature treatment. […] Degradation/formation rate, kd, is the slope given by a linear regression analysis. […] Relative tissue uptake was calculated at each sampling point.

[4] = system: guppies (Poecilia reticulata); parameters: method as in De Serrano et al. 2016; conditions: adult guppies exposed to 250 ng/L; ref De Serrano et al. 2016; cited from earlier work
zebrafish = system: zebrafish; parameters: method as in Levin et al. 2011; conditions: zebrafish exposed to 50 mg/L as embryos; ref Levin et al. 2011; cited from earlier work
in vivo [5] = conditions: water louse (Asellus aquaticus), 187 ng/L
Description: as §5, §6, §7

zebrafish (Danio rerio) = system: zebrafish (Danio rerio); parameters: method as in Endres et al. 2017; conditions: stressed zebrafish; environmentally relevant concentrations; ref Endres et al. 2017; cited from earlier work
[6] = ref SciFinder; cited from earlier work
[7] = Study 2: static water + biota, concentrations in the water column; conditions: for Water concentration, measured end / Water concentration, measured start / half-life at 187 ng/L / Formation time of ritalinic acid in water: static + biota; for Water concentration, measured end: final sampling day; for Water concentration, measured end / Water concentration, measured start: nominal 187 ng/L methylphenidate, mean ± s.d.; for Water concentration, measured start: immediately after dosing, Ntanks = 3; for half-life at 187 ng/L: aquarium water with biota (stickleback or water louse), pH 7, Half-life of methylphenidate in water
Description: Stickleback and water louse were exposed to 187 ng/L (nominal concentration) methylphenidate at two temperature treatments: 10 °C (in a climate chamber) and 20 °C (ambient room temperature). Both exposures were maintained at the same light cycle used in study 1. Organisms were exposed under static conditions using three replicate glass aquaria filled with 20 L water. The aquaria were equipped with an airstone and two ceramic clay pots for shelter in each temperature treatment. Fish were exposed in two tanks, while water louse were exposed separately in the remaining tank. Water from each tank was sampled at 0 min (immediately after dosing), 15 min, 30 min, 60 min, 4 h, 8 h, 24 h, 3 days, 5 days, 7 days, 9 days, 10 days, 11 days, 12 days, and 13 days. Three to six water louse and three to six fish were sampled at each of the following time points: 60 min, 4 h, 8 h, 24 h, 3 days, 5 days, 7 days, 9 days, 10 days, 11 days, 12 days, and 13 days. Fish were euthanized via cerebral concussion and spinal severance. Water quality measures of pH (Merck pH Universal Indicator Strips), dissolved oxygen, and temperature (YSI Pro DO Series) were verified in the exposure tanks on the final days of sampling.
as §1, §2, §3, §4

[8] = system: nine-spine stickleback (Pungitius pungitius); experiment: Study 2: uptake in muscle tissue of stickleback; conditions: for Start relative tissue concentration (Cb/Cw): 60 min after dosing
Description: as §5, §6, §8

humans = conditions: standard dose (18 mg); ref Faraj et al. 1974; Concerta Prescribing Information 2013; cited from earlier work
rhesus macaque = conditions: oral administration, ref Gualtieri et al. 1982, Doerge et al. 2000; cited from earlier work

For `OCCOCCN1CCN(C(c2ccccc2)c2ccc(Cl)cc2)CC1` (stereo not drawn) [hydroxyzine], the “Bioconcentration in water louse compared to European perch (Perca fluviatilis)” value (water louse) is listed as “higher levels”.
In the case of `COC(=O)C(c1ccccc1)C1CCCCN1` (stereo not drawn) [methylphenidate], the “Start relative tissue concentration (Cb/Cw)” value ([1]; 10 °C) is reported as 0.6, the “End relative tissue concentration (Cb/Cw)” value ([1]; 10 °C) is reported as 7.5 ± 3.2 (4.0–10.4) and the “Start relative tissue concentration (Cb/Cw)” value ([1]; 20 °C) is reported as 1.1. For the same molecule, the “End relative tissue concentration (Cb/Cw)” value ([1]; 20 °C) was 50.0, the “Time of peak tissue concentration” value ([1]; depending on temperature) was ~ 6 days and 5 to 7 days and 5–7 days and the concentration at 60 min (in vivo [2]) was 0.18 ng/g. The “Time of peak in plasma” value (human) was 1 to 4 h, the “Water concentration, measured end” value ([3]; 20 °C, static water only) was 7 ng/L and the “Water concentration, measured start” value ([3]; 20 °C, static water only) was 1660 ng/L. The half-life at 1870 ng/L ([3]; ground water in an aerated glass aquarium, no biota) was 37 h, the “Time that concentrations stay above ~ 180 ng/L in the water column” value ([3]; study not given) was “up to 2 days” and the “Effect on anxiety behaviours” value [4] was “Reductions in anxiety behaviours”. The “Effect on anxiety behaviours” value (zebrafish) was “Reductions in anxiety behaviours”, the concentration at 60 min (in vivo [5]) was 0.2 ng/g and the concentration at 13 days (in vivo [5]) was 0.1 ng/g. The “Effect on anxiety-like behaviours (e.g., freezing, hiding)” value (zebrafish (Danio rerio)) was “inhibited anxiety-like behaviours”, the pKa [6] was 9.5 and the “Water concentration, measured end” value ([7]; 10 °C) was 28 ± 4 ng/L. The “Water concentration, measured start” value ([7]; 10 °C) was 192 ± 28 ng/L, the “Water concentration, measured end” value ([7]; 20 °C) was 2 ± 1 ng/L and the “Water concentration, measured start” value ([7]; 20 °C) was 205 ± 19 ng/L. For the same molecule, the half-life at 187 ng/L ([7]; 10 °C) was 122 h, the half-life at 187 ng/L ([7]; 20 °C) was 47 h and the “Time of highest tissue concentration (first sampling point)” value [8] was 60 min. The “Time of highest tissue concentrations” value [8] was no more than 4 h, the “Start relative tissue concentration (Cb/Cw)” value ([8]; 10 °C) was 1.2 ± 0.5 (0.7–2.1) and the “Start relative tissue concentration (Cb/Cw)” value ([8]; 20 °C) was 0.5 ± 0.1 (0.4–0.7). For the same molecule, the “Share of dose excreted as ritalinic acid” value (humans) was “up to 80%” and the “Time of peak in plasma” value (rhesus macaque) was 1 to 4 h.
In the case of `O=C1Nc2ccc(Cl)cc2C(c2ccccc2)=NC1O` (stereo not drawn) [oxazepam], the “Bioconcentration in water louse compared to European perch (Perca fluviatilis)” value (water louse) is given as “higher levels”.
For `O=C(O)C(c1ccccc1)C1CCCCN1` (stereo not drawn) [ritalinic acid, α-phenyl-2-piperidine acetic acid], the “Formation time of ritalinic acid in water” value (“Formation time” for short) ([3]; 20 °C, static water only) was 79 h, the “Water concentration, measured end” value ([3]; 20 °C, static water only) was 1606 ng/L and the “Water concentration, measured start” value ([3]; 20 °C, static water only) was 387 ng/L. The “Time after which ritalinic acid concentration surpasses methylphenidate in water” value ([3]; water without biota, depending on temperature) was 48 to 100 h, the “Formation time” value ([7]; 10 °C) was 62 h and the “Water concentration, measured end” value ([7]; 10 °C) was 202 ± 12 ng/L. The “Water concentration, measured start” value ([7]; 10 °C) was 11 ± 10 ng/L, the “Formation time” value ([7]; 20 °C) was 65 h and the “Water concentration, measured end” value ([7]; 20 °C) was 231 ± 12 ng/L. For the same molecule, the “Water concentration, measured start” value ([7]; 20 °C) was 8 ± 2 ng/L and the “Time after which ritalinic acid concentration surpasses methylphenidate in water” value ([7]; water with biota, depending on temperature) was 48 to 100 h.

From paper PMC6469618 (Environmental Science and Pollution Research International, 2019)
